Experimental data reported in patent US6897036B2, “Fluorescent detection of peroxidase enzymes” (Lumigen, Inc., priority 2002, dated 2005).

Target: T1, HRP (Armoracia rusticana, UniProt P00433)
T1 sequence (P00433 31-338): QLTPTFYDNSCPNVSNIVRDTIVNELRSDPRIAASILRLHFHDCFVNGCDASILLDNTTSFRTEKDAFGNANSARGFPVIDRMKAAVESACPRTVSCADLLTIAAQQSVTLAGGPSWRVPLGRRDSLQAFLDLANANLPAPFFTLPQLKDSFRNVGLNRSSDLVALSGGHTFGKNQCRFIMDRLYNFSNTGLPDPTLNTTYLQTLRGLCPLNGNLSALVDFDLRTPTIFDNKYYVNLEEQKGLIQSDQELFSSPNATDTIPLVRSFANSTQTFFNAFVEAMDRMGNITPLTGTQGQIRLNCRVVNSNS
Assay: Detection of HRP with acridan substrate 13 by chemiluminescence and fluorescence (FIG. 5)
Assay type: biochemical, horseradish
Details: 0.05 mM substrate
Protocol: FIG. 5 is a graph showing the linearity of detection of HRP using reagent compositions containing substrate 13 with fluorescence and chemiluminescence detection. A solution containing 0.05 mM compound 13, 0.1 mM 4-phenylphenol, 0.5 mM urea peroxide, 1 mM EDTA, 0.025% TWEEN 20 in 10 mM tris, pH 8.0 was reacted with the indicated quantities of HRP. Chemiluminescence intensity was measured 10 min after addition of enzyme, fluorescence at 515 nm was measured 30 min after addition of enzyme.
Chemiluminescent HRP detection limit using a reagent composition containing 0.05 mM 2′,3′,6′-trifluorophenyl 3-methoxy-10-methylacridan-9-carboxylate (compound 13), 0.1 mM 4-phenylphenol, 0.5 mM urea peroxide, 1 mM EDTA, and 0.025% TWEEN 20 in 0.01 M tris buffer, pH 8.0 was obtained on a Labsystems Luminoskan microtiter plate reader. White Microlite 1 FB 12-well strips (Dynatech Laboratories) containing 100 μL of the reagent in each well were reacted with 10 μL of HRP dilutions. Light intensity was measured at 10 min.
Sensitive detection of HRP was achieved using the reaction solutions of Example 22 producing fluorescence by the second mode. After making the chemiluminescence measurement, the strips were transferred to the fluorometer and fluorescence intensity determined at 530 nm with excitation at 380 nm.

Detectable amount of HRP (fluorescence, second mode) (tris pH 8.0, fluorescence at 530 nm, excitation 380 nm): less than 1 amol | Sensitivity of fluorescent detection compared with chemiluminescent detection (in words) (tris pH 8.0, same reaction solutions): equivalent to chemiluminescent detection
SMILES: COc1ccc2c(c1)N(C)c1ccccc1C2C(=O)Oc1c(F)ccc(F)c1F (centres unmarked) [Compound 13, 2′,3′,6′-trifluorophenyl 3-methoxy-10-methylacridan-9-carboxylate]
